Measurements as given in patent US8568973B2, “Cell-signaling assays” (Molecular Devices, LLC, priority 1999, dated 2013).
Entries after “also recorded” stand apart in the source; their conditions may differ.

Tested on: T47D cells
Assay: Whole-cell cAMP luminescence polarization assay of modulators (FIG. 13)
Type: cell-based
Procedure: • (a) Preparation of 1:75 cAMP antibody working stock. Dilute the 300× cAMP antibody stock 1:75 in cAMP assay buffer (0.05 M HEPES, pH 7.5, 150 mM NaCl, 0.1% bovine gamma globulin) (e.g., by adding 14 μL of the 300× cAMP antibody stock to 1036 μL of cAMP assay buffer). 10 μL of this working stock solution will be added to the assay plate, as indicated in the plate layout in FIG. 9. • (b) Preparation of cAMP tracer working stock. Dilute the 500× cAMP tracer stock 1:125 in cAMP assay buffer (e.g., by adding 10 μL of the 500× cAMP tracer stock to 1240 μL of cAMP assay buffer). 10 μL of this working stock solution will be added to the assay plate, as indicated in the plate layout in FIG. 9. • (c) Preparation of cAMP calibration curve. Dilute the cAMP calibrator 1:25 in cAMP assay buffer (e.g., by adding 10 μL cAMP calibrator to 240 μL cAMP assay buffer) to give 10 μM cAMP calibrator or 400 pmol in final assay. Prepare seven 1:3 serial dilutions to give 3.33, 1.11, 0.37, 0.12, 0.041, 0.014, and 0.005 μM cAMP (133 to 0.125 pmol in final assay). • (d) Preparation of samples. […] A plastic plate cover may be used to prevent possible evaporation, but care should be taken with plastic plate sealers, which may introduce undesirable background fluorescence. • (e) Read plate using a light detection device capable of generating and detecting polarized light. […]

Row | SMILES | cAMP production (cAMP levels) (cultured adherent T47D cells, whole cell preparation, forskolin protocol 20 μM final, 15 minutes at 37° C.) | effect on isoproterenol-stimulated cAMP production (cultured T47D cells, endogenous beta receptors, antagonist added to isoproterenol stimulation)
1 | CC(C)NCC(O)c1ccc(O)c(O)c1 (centres unmarked) [isoproterenol] | stimulates cAMP production; also recorded: stimulated | 
2 | CC(C)NCC(O)COc1cccc2ccccc12 (centres unmarked) [propranolol] |  | reversed; also recorded: inhibited
